Entries after “also recorded” stand apart in the source; their conditions may differ. Like-named read-outs stand apart in the source and are kept apart here.
How the values were obtained:
dorsal raphe neurons = settings: systemic administration (I.V. and intragastric for metabolites), rats; cited from earlier work
[1] = system: rat pup ultrasonic vocalization; assay: Rat pup isolation-induced ultrasonic vocalization test; format: in vivo, rat (Harlan Sprague-Dawley pups); settings: for suppression of rat pup ultrasonic vocalization: 0.03-1 mg/kg, cold plate; for suppression of rat pup ultrasonic vocalization / ED50: sc, 30 min prior to test; for ED50: Rattus norvegicus, 0.5 h, doses refer to weight of the salt, read-out: ID50, dose predicted to reduce the number of calls by 50%; for anxiolytic activity in rat pup isolation-induced ultrasonic vocalization model (in words): in vivo
[2] = system: rat pup locomotor activity; assay: Locomotor activity (grid cell crossings) in the rat pup; format: in vivo, rat (Harlan Sprague-Dawley pups); settings: sc; for locomotor activity (in words): 0.03-1 mg/kg
clinical = format: in vivo
Description: The human dosing schedule is shown below. |______________________________________ […] | Interval BID Dose (mg) (Study Day) |______________________________________ […] | 3 15 15 […] | 5 30 25 |______________________________________

human 5-HT1A receptor = biological target: T1, human 5-HT1A receptor (Homo sapiens, UniProt P08908); assay: 5-HT1A receptor binding assay (3H-8-OH-DPAT)
T1 construct: expressed in transfected cells; host or cells: HEK293
T1 sequence (P08908 1-422): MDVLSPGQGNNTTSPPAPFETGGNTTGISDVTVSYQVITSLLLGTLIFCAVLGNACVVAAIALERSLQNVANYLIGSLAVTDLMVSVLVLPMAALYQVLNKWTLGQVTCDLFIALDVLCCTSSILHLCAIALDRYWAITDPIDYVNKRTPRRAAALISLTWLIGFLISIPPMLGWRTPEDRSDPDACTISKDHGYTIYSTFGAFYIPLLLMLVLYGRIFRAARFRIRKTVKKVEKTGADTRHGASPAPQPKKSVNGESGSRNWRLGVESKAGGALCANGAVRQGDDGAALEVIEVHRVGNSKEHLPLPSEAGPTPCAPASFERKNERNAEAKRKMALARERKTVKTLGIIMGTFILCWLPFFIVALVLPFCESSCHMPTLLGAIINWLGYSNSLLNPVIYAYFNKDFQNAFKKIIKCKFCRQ

[3] = cited from earlier work
[4] = cited from earlier work; remark: listed apart in the source
[5] = Modified Vogel Conflict test; format: in vivo; settings: earlier in-house testing
Description: Earlier in-house functional testing of BMY 28674 utilized an in vivo test method based on modification of the Vogel Conflict test, a simple reliable conflict procedure for testing antianxiety agents (see: Vogel, et al., Psychopharmacologia, (Berl.) 21, pp. 1-7, 1971). […] No useful antianxiety activity has been ascribed to BMY 28674 previously.

[6] = Previous laboratory testing for antianxiety properties; settings: laboratory methods developed for azapirone compounds

| SMILES | inhibition of dorsal raphe neuronal firing (dorsal raphe neurons) | suppression of rat pup ultrasonic vocalization [1] | ED50 [1] | anxiolytic activity in rat pup isolation-induced ultrasonic vocalization model (in words) [1] | locomotor activity (in words) ([2]; 30 min prior to test) | affinity for human 5-HT1A receptor (in words) (human 5-HT1A receptor) | also measured |
| --- | --- | --- | --- | --- | --- | --- | --- |
| O=C1CC2(CCCC2)CC(=O)N1CCCCN1CCN(c2ncccn2)CC1 [Buspirone, reference compound] | potently inhibits | dose-dependent suppression | 0.1 mg/kg | anxiolytic-like activity | impaired |  | concentration at 2 h (clinical; human, in vivo, po): < 1 ng/mL |
| c1cnc(N2CCNCC2)nc1 [1-PP, 1-(2-pyrimidinyl)piperazine] | weak inhibition |  |  |  |  | does not demonstrate binding | anxiogenic properties in other behavioral testing paradigms ([3]; Cervo et al., 1988, Martin, 1991): displayed anxiogenic properties; antianxiety activity in certain other preclinical tests ([3]; U.S. Pat. No. 4,409,223): some antianxiety activity |
| O=C1CC2(CCCC2)C(O)C(=O)N1CCCCN1CCN(c2ncccn2)CC1 (stereo not drawn) [BMY 28674, 6-hydroxy-8-[4-[4-(2-pyrimidinyl)-piperazinyl]-butyl]-8-azaspiro[4.5]-7,9-dione] |  | dose-dependent suppression | 0.13 mg/kg | anxiolytic-like activity | significantly impaired | binding affinity that approaches that of buspirone; also recorded: binding affinity closer to that of buspirone | abundance as metabolite in human urine ([4]; after buspirone): second most abundant metabolite; doses for anxiolytic activity relative to those required to suppress motor activity ([1]; vs suppression of motor activity): much lower doses; antianxiety response in the Vogel test [5]: did not elicit an antianxiety response; ED50 ([2]; Rattus norvegicus, 0.5 h, 30 min prior to test, doses refer to weight of the salt, read-out: ID50 dose estimated to reduce locomotor activity): 0.41 mg/kg; ratio of doses impairing locomotor activity to doses suppressing ultrasonic calls ([2]; locomotor vs ultrasonic calls, 30 min): approximately 3 fold; blood concentration relative to 1-PP (clinical; after oral buspirone, BMY 28674 vs 1-PP): several-fold greater; also recorded: several-fold higher; blood levels compared to buspirone (in words) (clinical; oral buspirone BID, 12-hour dosing period): much higher and are sustained compared to buspirone; antianxiety activity in previous testing [6]: no anxiolytic activity was detected; also recorded: No significant antianxiety activity |
| Oc1cnc(N2CCNCC2)nc1 [5-hydroxy-1PP, reference compound] |  |  |  |  |  |  | abundance as metabolite in human urine ([4]; in vivo): most |

From patent US6150365A, “Anxiety method” (priority 2000, dated 2000)
